Data set [1] can be described thus: Blood levels in mice after intramuscular administration. The note with it: mouse, im, 20 mg/kg i.m. Format: in vivo. From the text: a single test; 4 mice used per compound.
The test system of the next data set is B. fragilis A22696. As to the kind of experiment: Minimum Inhibitory Concentration, tube dilution. Conditions: Bacteroides fragilis, overnight 37° C., read-out: MIC. Format: cell-based.
For data set [2], the system named is P. aeruginosa A-9843a. As to the kind of experiment: Protective effect, intramuscular treatment of infected mice. The note with it: Pseudomonas aeruginosa, A9843A, im; challenge 3 × 10^4; Historical data; read-out: PD50 /Treatment. Format: in vivo.
Description: (§1) The PD50 (dose in mg/kg required to give protection to 50% of the infected mice) is indicated.
(§2) Treatment Schedule: Mice were treated i.m. with drugs 0 and 2 hours
(§3) 3.5 hours (all others); 5 mice were used for each test.
For the next data set, the system named is P. aeruginosa A20481. The data set is described as above. In kind it is in vivo. The note with it: Pseudomonas aeruginosa, A20481, im; i.m.; challenge 3 × 10^4; read-out: PD50 /Treatment.
A further data set deals with E. coli A20341-1. In words: Minimum Inhibitory Concentration, tube dilution. In kind it is cell-based. Conditions: Escherichia coli, A203411, 10^-4.
In the next data set the test system is S. faecalis A20688. In words: Minimum Inhibitory Concentration, tube dilution. Format: cell-based. Conditions: Enterococcus faecalis.
Data set [3] is described as follows: Toxicity after intracranial administration to mice. Conditions: mouse, in vivo.
Another data set can be described thus: in vivo. Conditions: mouse.
The next data set deals with E. cloacae A-9569. As to the kind of experiment: animal or person. The note with it: Enterobacter cloacae, A9569, in Mus musculus, im, read-out: PD50 /Treatment.
The subject of a further data set is S. aureus A-9537. In words: Minimum Inhibitory Concentration, tube dilution. In kind it is cell-based. Conditions: Staphylococcus aureus, read-out: MIC.
Data set [4] deals with K. pneumoniae A-9664. As to the kind of experiment: Protective effect, intramuscular treatment of infected mice. Format: in vivo. Conditions: Klebsiella pneumoniae, A9664, im; i.m.; challenge 7 × 10^6; read-out: PD50 /Treatment.
Description: as §1, §2, §3
A short description of data set [5]: Urinary recovery in mice after intramuscular administration. Format: in vivo. The note with it: mouse, urine, im, 20 mg/kg, 20 mg/kg i.m., read-out: Percentage of Dose Recovered (urine). From the text:
| a single test; 4 mice per compound.

In another data set the test system is H. influenzae A-9833. In words: Minimum Inhibitory Concentration, tube dilution. In kind it is cell-based. Conditions: Haemophilus influenzae, A9833.
In a further data set the test system is H. influenzae A20178. As to the kind of experiment: Minimum Inhibitory Concentration, tube dilution. Format: cell-based. The note with it: Haemophilus influenzae, overnight 37° C.
Data set [6] deals with P. mirabilis A-9900. As to the kind of experiment: animal or person. The note with it: Proteus mirabilis, A9900, in Mus musculus, im, read-out: PD50 /Treatment, i.m.; challenge 4 × 10^6.
Description: as §1, §2, §3
Another data set has as its system H. influenzae A21518. In words: Minimum Inhibitory Concentration, tube dilution. Format: cell-based. The note with it: Haemophilus influenzae, overnight 37° C.
A further data set has as its system M. morganii A15149. In words: Protective effect, intramuscular treatment of infected mice. Format: in vivo. The note with it: Morganella morganii, A15149, im; i.m.; challenge 7 × 10^5; read-out: PD50 /Treatment.
The subject of the next data set is P. rettgeri A15167-2. The description is as above. In kind it is in vivo. The note with it: Providencia rettgeri, A151672, im; i.m.; challenge 3 × 10^7; read-out: PD50 /Treatment.
For the next data set, the system named is S. pneumoniae A-9585. As to the kind of experiment: Minimum Inhibitory Concentration, tube dilution. Format: cell-based. Conditions: Streptococcus pneumoniae, A9585, overnight 37° C.
A further data set concerns S. pyogenes A-9604. As to the kind of experiment: Minimum Inhibitory Concentration, tube dilution. The note with it: Streptococcus pyogenes, A9604, overnight 37° C. In kind it is cell-based.
The test system of the next data set is S. marcescens A20335. As to the kind of experiment: Protective effect, intramuscular treatment of infected mice. Format: in vivo. Conditions: Serratia marcescens, A20335, im; i.m.; challenge 9 × 10^6; read-out: PD50 /Treatment.
The nature of data set [7]: Half-life in phosphate buffer pH 7.4. Format: physicochemical. The note with it: phosphate buffer. In short, it runs like this:
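Compound at 10^-4 M in phosphate buffer pH 7.4 at 36.8° C; τ1/2 reported from this incubation.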

Data set [8] deals with P. aeruginosa A-9843A. In words: Minimum Inhibitory Concentration, tube dilution. Format: cell-based. Conditions: Pseudomonas aeruginosa, A9843A.
The subject of the next data set is P. vulgaris A21559. As to the kind of experiment: Minimum Inhibitory Concentration, tube dilution. In kind it is cell-based. The note with it: Proteus vulgaris, A21559, overnight 37° C.
The next data set has as its system E. coli A15119. As to the kind of experiment: Minimum Inhibitory Concentration, tube dilution. Format: cell-based. Conditions: Escherichia coli, A15119, 10^-4 dil.
A further data set relates to H. influenzae A21522. As to the kind of experiment: Minimum Inhibitory Concentration, tube dilution. In kind it is cell-based. Conditions: Haemophilus influenzae, overnight 37° C.
The test system of the next data set is S. aureus A-9606. In words: Protective effect, intramuscular treatment of infected mice. In kind it is in vivo. The note with it: Staphylococcus aureus, A9606, im; i.m.; challenge 1 × 10^9; read-out: PD50 /Treatment.
The test system of a further data set is P. rettgeri A22424. As to the kind of experiment: Minimum Inhibitory Concentration, tube dilution. In kind it is cell-based. The note with it: Providencia rettgeri, overnight 37° C., read-out: MIC.
The subject of data set [9] is S. aureus A-9606 (Pen-res.). As to the kind of experiment: Minimum Inhibitory Concentration, tube dilution. In kind it is cell-based. Conditions: Staphylococcus aureus.
For the next data set, the system named is P. aeruginosa A20599. As to the kind of experiment: Protective effect, intramuscular treatment of infected mice. In kind it is in vivo. The note with it: Pseudomonas aeruginosa, A20599, im; i.m.; challenge 9 × 10^4; read-out: PD50 /Treatment.
The test system of data set [10] is K. pneumoniae A-9664. In words: Minimum Inhibitory Concentration, tube dilution. Format: cell-based. The note with it: Klebsiella pneumoniae, A9664, overnight 37° C.; table 6.
The test system of data set [11] is S. aureus A15097 (Meth-res.). In words: Minimum Inhibitory Concentration, tube dilution. In kind it is cell-based. The note with it: Staphylococcus aureus, table 6.
In the next data set the test system is P. aeruginosa A9843A. As to the kind of experiment: animal or person. Format: in vivo, mice. The note with it: Pseudomonas aeruginosa, in Mus musculus, im, read-out: PD50 /treatment.
The test system of data set [12] is P. mirabilis A-9900. In words: Minimum Inhibitory Concentration, tube dilution. Format: cell-based. Conditions: Proteus mirabilis, A9900, overnight 37° C.; table 6.
Another data set concerns P. mirabilis A9900. As to the kind of experiment: Protective effect, intramuscular treatment of infected mice (table 8). Format: in vivo. The note with it: Proteus mirabilis, A9900, im; i.m. 0 and 2 h post-infection; 4×10^7 organisms i.p.; read-out: PD50 /treatment.
In a further data set the test system is M. morganii A15153. In words: Minimum Inhibitory Concentration, tube dilution. Format: cell-based. Conditions: Morganella morganii, A15153, overnight 37° C.; table 6.
Another data set relates to S. marcescens A20019. As to the kind of experiment: Minimum Inhibitory Concentration, tube dilution. Format: cell-based. The note with it: Serratia marcescens, A20019, overnight 37° C.; table 6.
The subject of another data set is P. aeruginosa A21213. As to the kind of experiment: Minimum Inhibitory Concentration, tube dilution. In kind it is cell-based. The note with it: Pseudomonas aeruginosa, A21213, overnight 37° C.; table 6; read-out: MIC.
The subject of data set [13] is various Pseudomonas species. Conditions: cited from earlier work.

Values after ≈ are worked out from the molar mass of the structure shown. Like-named read-outs stand apart in the source and are kept apart here.

As a reminder, the AUC is concentration integrated over time. Read a high AUC as high exposure. Broadly, the half-life is the time in which the quantity being followed falls by half. High values mean slow decline, low ones rapid decline. The LD50 is the dose expected to kill half of the subjects tested. Lower therefore signals greater toxicity. The term NOAEL denotes the highest dose or exposure tested at which no adverse effect was seen.

Description for E. cloacae A-9569: as §1, §2, §3
Description for M. morganii A15149: as §1, §2, §3
Description for P. aeruginosa A20481: as §1, §2, §3
Description for P. aeruginosa A20599: as §1, §2, §3
Excerpt for P. aeruginosa A9843A: as §1
Excerpt for P. mirabilis A9900: as §1
Description for P. rettgeri A15167-2: as §1, §2, §3
Description for S. marcescens A20335: as §1, §2, §3

`C[C@@H](O)[C@H]1C(=O)N2C(C(=O)[O-])=C(SCC[n+]3ccccc3)C[C@H]12` [Example 1, 3-[2-(1-Pyridinium)ethylthio]-6α-[1-(R)-hydroxyethyl]-7-oxo-1-azabicyclo (3.2.0)-hept-2-ene-2-carboxylate] registered an area under the curve (AUC) in data set [1] of 6400 ng·h/mL. The compound further gave a half-life in [1] of 9 min. Besides, the MIC is 0.5 µg/mL (≈ 1.5 µM) in the data set on B. fragilis A22696; 0.03 µg/mL (≈ 0.0897 µM) with E. coli A20341-1; 0.5 µg/mL (≈ 1.5 µM) against S. faecalis A20688 (A20688); 0.03 µg/mL with S. aureus A-9537 (A9537, + 50% serum); 0.008 µg/mL (≈ 0.0239 µM) in the data set on S. aureus A-9537 (A9537, overnight 37° C.); 8 µg/mL (≈ 23.9 µM) against H. influenzae A-9833. For the same compound, the MIC was found to be 8 µg/mL (≈ 23.9 µM) against H. influenzae A20178; 8 µg/mL (≈ 23.9 µM) in the data set with H. influenzae A21518; 0.002 µg/mL (≈ 0.00598 µM) in the data set on S. pneumoniae A-9585; 0.008 µg/mL (≈ 0.0239 µM) against S. pyogenes A-9604; 2 µg/mL (≈ 5.98 µM) in the data set on P. aeruginosa A-9843A [8]; 0.03 µg/mL (≈ 0.0897 µM) with P. vulgaris A21559. The MIC turned out to be 0.03 µg/mL (≈ 0.0897 µM) against E. coli A15119, 8 µg/mL (≈ 23.9 µM) against H. influenzae A21522, 0.5 µg/mL (≈ 1.5 µM) with P. rettgeri A22424 and 0.016 µg/mL (≈ 0.0478 µM) in [9] (Pen-res.). For the same compound, the ED50 is 0.8 mg/kg in the data set on P. aeruginosa A-9843a [2]; 0.8 mg/kg in the data set with P. aeruginosa A20481; 0.4 mg/kg with E. cloacae A-9569; 7.7 mg/kg with K. pneumoniae A-9664 [4]; 19 mg/kg in the data set with P. mirabilis A-9900 [6]; 4.4 mg/kg in the data set on M. morganii A15149. The ED50 amounted to 5.7 mg/kg with P. rettgeri A15167-2, 3.3 mg/kg in the data set with S. marcescens A20335, 0.11 mg/kg in the data set with S. aureus A-9606 and 3 mg/kg in the data set on P. aeruginosa A20599. The same compound showed a 50% lethal dose (LD50) in [3] of more than 40 mg/kg. In addition, in “in vivo”, the NOAEL was more than 40 mg/kg. Moreover, in data set [5] (0-3 hours), the dose excreted at 3 h amounted to 23.3%. Moreover, the results for the dose excreted at 24 h in [5] (0-24 hours) and in [5] (6-24 hours) were 24.2 ± 5.3% and 0.4%, respectively. The dose excreted at 6 h in data set [5] (3-6 hours) came to 0.5%. Also, in data set [7] (pH 7.4, τ1/2 (half-life)), the half-life at 100 µM was 13.5 h.
Take `C[C@@H](O)[C@H]1C(=O)N2C(C(=O)[O-])=C(SCC[n+]3cccc(N)c3)C[C@H]12` [Example 14, (5R, 6S)-3-[2-(3-aminopyridinio)ethylthio]-6-[1-(R)-hydroxyethyl]-7-oxo-1-azabicyclo[3.2.0]-hept-2-ene-2-carboxylate]: the MIC in the data set with S. faecalis A20688 (A20688, overnight 37° C., table 6, read-out: MIC) was determined as 0.5 µg/mL (≈ 1.43 µM); in the data set on K. pneumoniae A-9664 [10], 0.06 µg/mL (≈ 0.172 µM); in [11], 0.008 µg/mL (≈ 0.0229 µM); with S. aureus A-9537 (A9537, 50% serum, table 6) it was 0.016 µg/mL (≈ 0.0458 µM); in the data set on S. aureus A-9537 (A9537, overnight 37° C., table 6), 0.008 µg/mL (≈ 0.0229 µM); against P. mirabilis A-9900 [12], 0.03 µg/mL (≈ 0.0859 µM). The MIC against M. morganii A15153 worked out at 0.03 µg/mL (≈ 0.0859 µM); in the data set on S. pneumoniae A-9585 (table 6), 0.002 µg/mL (≈ 0.00572 µM); in the data set on S. pyogenes A-9604 (table 6) it was 0.004 µg/mL (≈ 0.0114 µM); with P. aeruginosa A-9843A [8] (overnight 37° C., table 6, read-out: MIC), 2 µg/mL (≈ 5.72 µM); with P. vulgaris A21559 (table 6), 0.016 µg/mL (≈ 0.0458 µM); in [9] (Pen-res, table 6), 0.008 µg/mL (≈ 0.0229 µM). The results for the MIC in the data set on S. marcescens A20019 and in the data set on P. aeruginosa A21213 were 0.06 µg/mL (≈ 0.172 µM) and 1 µg/mL (≈ 2.86 µM), respectively. Further, the results for the ED50 with P. aeruginosa A9843A and with P. mirabilis A9900 were 0.78 mg/kg and 5.4 mg/kg, respectively. This compound gave a half-life in data set [7] (pH 7.4, t1/2 (half-life)) of 18.5 h.
For `C[C@@H](O)[C@H]1C(=O)N2C(C(=O)O)=C(SCCN)C[C@H]12` [Thienamycin, thienamycin], the “activity against various Pseudomonas species” value in [13] was “notable activity”.

Values taken from US4642341A, “Carbapenem antibiotics” (priority 1985, dated 1987).
